Data as given in patent US9475778B2, “Sulfate of 5-hydroxy-1H-imidazole-4-carboxamide” (FUJIFILM Corporation, priority 2013, dated 2016).

Experiments:
Format in all cases: physicochemical
[1] = Storage for 2 weeks under conditions of 25° C. and relative humidity of 97%; settings: relative humidity 97%
[2] = Storage stability test (3) under conditions of 60° C. and relative humidity of 75% (mass change, color appearance); settings: relative humidity 75%, 2 weeks; for Mass change ratio (%): glass bottle, {(A1−A0)/A0}×100
Procedure: Storage Stability Test (3) Under Conditions of 60° C. and Relative Humidity of 75%
As test substances, the crystals obtained in Example 2 and Comparative Example 2 were chosen.
Each test substance (about 0.3 g) was put into a glass bottle, and stored under the conditions of 60° C. and relative humidity of 75% for 2 weeks, and then mass was measured. Mass change ratio of each test substance was calculated according to the following equation. Mass change ratio(%)={(A1−A0)/A0}×100 A0: Mass (g) of test substance before test A1: Mass (g) of test substance after test
Change of color appearance of the test substances was also visually evaluated.

[3] = Storage stability test (2) under conditions of 60° C. and relative humidity of 75% (purity by HPLC); settings: relative humidity 75%, 2 weeks
Procedure: The purities are represented in terms of HPLC area %. The HPLC measurement was performed by using Prominence (Shimadzu) under the following conditions.
Storage Stability Test (2) Under Conditions of 60° C. and Relative Humidity of 75%
As a test substance, the crystals obtained in Example 1 were chosen.
The test substance (about 0.3 g) was put into a glass bottle, and stored under the conditions of 60° C. and relative humidity of 75% for 2 weeks. After completion of the test, purity of the substance was measured by HPLC.

[4] = Storage stability test (1) under conditions of 60° C. and relative humidity of 75% (coloring); settings: glass bottle, relative humidity 75%, 2 weeks, compared with crystals of Comparative Example 1
Procedure: Storage Stability Test (1) Under Conditions of 60° C. and Relative Humidity of 75%
As test substances, the crystals obtained in Examples 1 and 2 and Comparative Example 1 were chosen.
Each test substance (about 0.3 g) was put into a glass bottle, and stored under the conditions of 60° C. and relative humidity of 75% for 2 weeks.

Structure (SMILES) | appearance change after storage [1] | Mass change ratio (%) [2] | purity of the test substance after storage (HPLC) ([3]; glass bottle, HPLC area %) [%] | Change of color appearance ([2]; visually evaluated) | coloring after storage [4] | purity after storage (in words) ([3]; evaluated in the same manner as Test Example 2)
CS(=O)(=O)O.NC(=O)c1nc[nH]c1O [Comparative Example 2, Methanesulfonate of 5-hydroxy-1H-imidazole-4-carboxamide, reference compound] | deliquesced | +16.2% | – | – | – | –
NC(=O)c1nc[nH]c1O.O=S(=O)(O)O [Example 1, sulfate of 5-hydroxy-1H-imidazole-4-carboxamide] | – | – | 99.97 | – | – | –
NC(=O)c1nc[nH]c1O.O=S(=O)(O)O [Example 2, sulfate of 5-hydroxy-1H-imidazole-4-carboxamide] | did not show appearance change | −0.1% | – | No change (white) | coloring in an obviously lower degree | high purity even after the storage for 2 weeks
